Data taken from ChEMBL document CHEMBL1201862, “PubChem BioAssay data set” (2004).
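Exposure lasted 48 hours, with cells grown in 96-well plates and compounds tested at five concentrations. Abbreviation: GI50, concentration required for 50% inhibition of growth.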 Calls of active or inactive are those of the source. Rule as the data show it: active = GI50 up to about 1.1 µM and inactive = higher.

How the values were obtained:
Assay in all cases: NCI anticancer screen, dose series, 48 h
HOP-62 = test system: HOP-62
SNB-19 = test system: SNB-19
UACC-62 = test system: UACC-62
UACC-257 = test system: UACC-257
SK-MEL-5 = test system: SK-MEL-5
MDA-MB-231 = test system: MDA-MB-231
RXF 393 = test system: RXF 393
NCI-H226 = test system: NCI-H226
HCT-15 = test system: HCT-15
RPMI-8226 = test system: RPMI-8226
TK-10 = test system: TK-10
U-251 = test system: U-251
SK-OV-3 = test system: SK-OV-3
COLO 205 = test system: COLO 205
OVCAR-5 = test system: OVCAR-5
A549 = test system: A549
NCI-H522 = test system: NCI-H522
IGROV-1 = test system: IGROV-1
HT-29 = test system: HT-29
CAKI-1 = test system: CAKI-1

| SMILES | GI50 (HOP-62) | GI50 (SNB-19) | GI50 (UACC-62) | GI50 (UACC-257) | GI50 (SK-MEL-5) | GI50 (MDA-MB-231) | GI50 (RXF 393) | GI50 (NCI-H226) | GI50 (HCT-15) | GI50 (RPMI-8226) | GI50 (TK-10) | GI50 (U-251) | GI50 (SK-OV-3) | GI50 (COLO 205) | GI50 (OVCAR-5) | GI50 (A549) | GI50 (NCI-H522) | GI50 (IGROV-1) | GI50 (HT-29) | GI50 (CAKI-1) |
| --- | --- | --- | --- | --- | --- | --- | --- | --- | --- | --- | --- | --- | --- | --- | --- | --- | --- | --- | --- | --- |
| Nc1nc(O)nc2sc3c(c12)CCCC3 | 98.4 µM (inactive) | 55.8 µM (inactive) | 32.1 µM (inactive) | 63.1 µM (inactive) | > 100 µM (inactive) | 98.4 µM (inactive) | > 100 µM (inactive) | 4.57 µM (inactive) | > 100 µM | 38.5 µM (inactive) | 92 µM (inactive) | > 100 µM (inactive) | > 100 µM (inactive) | 39.5 µM (inactive) | > 100 µM (inactive) | 84.3 µM (inactive) | 46.6 µM (inactive) | 87.7 µM (inactive) | 68.2 µM (inactive) | – |
| Cc1ccc([N+](=O)[O-])cc1S(=O)(=O)Nc1ccc(C(=O)/C=C/c2cccs2)cc1 | 22.1 µM (inactive) | 21.5 µM (inactive) | 16.3 µM (inactive) | 20.5 µM (inactive) | 16.9 µM (inactive) | 16.3 µM (inactive) | 17.7 µM (inactive) | 22.5 µM (inactive) | 23.4 µM | 20.7 µM (inactive) | 56.2 µM (inactive) | – | 44.1 µM (inactive) | 24.1 µM (inactive) | 31.5 µM (inactive) | 91.6 µM (inactive) | 19.2 µM (inactive) | 36.6 µM (inactive) | 18.9 µM (inactive) | 16.2 µM (inactive) |
| CC(C)C/N=C(\N)N=C(N)N | > 100 µM (inactive) | > 100 µM (inactive) | > 100 µM (inactive) | > 100 µM (inactive) | > 100 µM (inactive) | > 100 µM (inactive) | > 100 µM (inactive) | > 100 µM (inactive) | > 100 µM | > 100 µM (inactive) | > 100 µM (inactive) | > 100 µM (inactive) | > 100 µM (inactive) | > 100 µM (inactive) | > 100 µM (inactive) | > 100 µM (inactive) | > 100 µM (inactive) | > 100 µM (inactive) | > 100 µM (inactive) | – |
| c1ccc(C[P+]2(c3ccccc3)c3ccccc3-c3ccccc32)cc1 | > 100 µM (inactive) | > 100 µM (inactive) | > 100 µM (inactive) | > 100 µM (inactive) | > 100 µM (inactive) | > 100 µM (inactive) | > 100 µM (inactive) | > 100 µM (inactive) | > 100 µM | > 100 µM (inactive) | > 100 µM (inactive) | – | > 100 µM (inactive) | > 100 µM (inactive) | – | > 100 µM (inactive) | > 100 µM (inactive) | > 100 µM (inactive) | – | > 100 µM (inactive) |
| NC(=O)SCC(=O)Nc1ccc2cccc3c2c1CC3 | 52.1 µM (inactive) | 99.3 µM (inactive) | 13.7 µM (inactive) | 21.1 µM (inactive) | 26.8 µM (inactive) | 6.76 µM (inactive) | 26 µM (inactive) | – | 16.6 µM | 20.9 µM (inactive) | 27.9 µM (inactive) | 5.33 µM (inactive) | – | > 100 µM (inactive) | 17.7 µM (inactive) | > 100 µM (inactive) | > 100 µM (inactive) | > 100 µM (inactive) | 29.7 µM (inactive) | 42.1 µM (inactive) |
| CC(=N)OC1CC2CCC1(C)C2(C)C (stereo not given) | > 100 µM (inactive) | – | > 100 µM (inactive) | > 100 µM (inactive) | > 100 µM (inactive) | > 100 µM (inactive) | > 100 µM (inactive) | > 100 µM (inactive) | > 100 µM | > 100 µM (inactive) | > 100 µM (inactive) | > 100 µM (inactive) | > 100 µM (inactive) | > 100 µM (inactive) | > 100 µM (inactive) | > 100 µM (inactive) | > 100 µM (inactive) | > 100 µM (inactive) | > 100 µM (inactive) | > 100 µM (inactive) |
| CCOC(=O)c1c(CN2CCCC2)n(-c2ccccc2)c2cc(Br)c(O)cc12 | 13.3 µM (inactive) | 16.5 µM (inactive) | 16.7 µM (inactive) | 17.5 µM (inactive) | 13.4 µM (inactive) | 17.8 µM (inactive) | 12.4 µM (inactive) | – | 20.8 µM | 16.2 µM (inactive) | 20.5 µM (inactive) | 16.3 µM (inactive) | 25.8 µM (inactive) | 10.5 µM (inactive) | 19.1 µM (inactive) | 16 µM (inactive) | 17.1 µM (inactive) | 16.8 µM (inactive) | 5.86 µM (inactive) | 17.1 µM (inactive) |
